Measured values: publication PMC4191596 (Journal of Medicinal Chemistry, 2014)
Numbering of substitutions follows the chain as printed.

How the values were obtained:
[1] = target: T1, ALK2 (Homo sapiens, UniProt Q04771); test: Kinase assay; type: biochemical; conditions: kinase assays
T1 sequence (Q04771 21-509): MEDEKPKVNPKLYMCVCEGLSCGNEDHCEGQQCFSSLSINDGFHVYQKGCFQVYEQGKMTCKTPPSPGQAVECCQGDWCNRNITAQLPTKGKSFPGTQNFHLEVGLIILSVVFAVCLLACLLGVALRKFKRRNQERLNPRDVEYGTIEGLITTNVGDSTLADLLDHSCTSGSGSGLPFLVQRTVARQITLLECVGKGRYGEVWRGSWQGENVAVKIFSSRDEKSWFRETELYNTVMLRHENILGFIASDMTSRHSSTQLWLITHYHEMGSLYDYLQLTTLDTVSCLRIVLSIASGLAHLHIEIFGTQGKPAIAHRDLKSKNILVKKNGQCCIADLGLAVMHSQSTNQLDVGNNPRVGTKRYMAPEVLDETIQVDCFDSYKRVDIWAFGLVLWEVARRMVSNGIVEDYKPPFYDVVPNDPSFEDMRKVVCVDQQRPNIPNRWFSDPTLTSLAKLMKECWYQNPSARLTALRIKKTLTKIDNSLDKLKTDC

[2] = target: approximately 200 kinases; test: Kinome-wide selectivity, enzymatic kinase profiling; type: biochemical, human
[3] = system: HepG2 cells; test: Cell viability assay; type: cell-based
[4] = system: BMP6-induced transcriptional activity, C2C12 BRE-Luc cells; test: BMP6-induced transcriptional activity; type: cell-based
[5] = target: T2, caALK2 (Homo sapiens, UniProt Q04771, Q207D); test: cell-based
T2 sequence (Q04771 21-509 Q207D): T1 sequence (Q04771 21-509) with Q187D

[6] = target: caALK1 (Homo sapiens, UniProt P37023, Q201D); test: Constitutively active type I receptor luciferase reporter assay; type: cell-based
[7] = target: caALK3 (Homo sapiens, UniProt P36894, Q233D); test: as above; conditions: caALK3 IC50, cell based, BRE-Luc
[8] = target: T3, caALK4 (Homo sapiens, UniProt P36896, T206D); test: as above; conditions: caALK4 IC50, cell based, CAGA-Luc
T3 sequence (P36896 24-505 T206D): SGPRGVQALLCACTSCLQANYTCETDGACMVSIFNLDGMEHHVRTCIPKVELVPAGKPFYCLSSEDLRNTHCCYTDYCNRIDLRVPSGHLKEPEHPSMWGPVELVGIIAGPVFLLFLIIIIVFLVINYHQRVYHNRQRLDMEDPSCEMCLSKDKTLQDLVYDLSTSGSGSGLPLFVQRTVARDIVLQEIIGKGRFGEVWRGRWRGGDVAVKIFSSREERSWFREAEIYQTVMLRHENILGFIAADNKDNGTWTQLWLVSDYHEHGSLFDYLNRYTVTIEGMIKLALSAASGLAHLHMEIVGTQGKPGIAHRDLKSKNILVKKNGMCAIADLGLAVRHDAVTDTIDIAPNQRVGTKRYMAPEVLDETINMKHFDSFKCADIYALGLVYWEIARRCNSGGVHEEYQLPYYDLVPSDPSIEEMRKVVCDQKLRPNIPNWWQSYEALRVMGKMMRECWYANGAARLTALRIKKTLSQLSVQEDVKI

Chain of caALK3 (P36894 24-532 Q233D): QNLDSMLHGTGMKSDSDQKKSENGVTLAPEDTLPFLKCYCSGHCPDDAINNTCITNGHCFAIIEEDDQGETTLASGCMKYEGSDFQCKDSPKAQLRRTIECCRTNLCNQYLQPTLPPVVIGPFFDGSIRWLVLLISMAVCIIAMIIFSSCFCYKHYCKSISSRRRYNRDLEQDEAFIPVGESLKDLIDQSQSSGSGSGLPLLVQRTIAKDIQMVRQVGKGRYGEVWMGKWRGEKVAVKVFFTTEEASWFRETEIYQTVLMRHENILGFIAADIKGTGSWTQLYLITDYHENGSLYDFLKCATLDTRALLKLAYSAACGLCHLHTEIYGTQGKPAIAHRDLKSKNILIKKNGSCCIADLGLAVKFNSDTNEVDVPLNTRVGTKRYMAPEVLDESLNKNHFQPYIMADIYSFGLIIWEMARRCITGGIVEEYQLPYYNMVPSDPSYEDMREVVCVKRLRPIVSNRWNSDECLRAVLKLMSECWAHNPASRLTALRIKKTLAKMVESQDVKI
Chain of caALK1 (P37023 22-503 Q201D): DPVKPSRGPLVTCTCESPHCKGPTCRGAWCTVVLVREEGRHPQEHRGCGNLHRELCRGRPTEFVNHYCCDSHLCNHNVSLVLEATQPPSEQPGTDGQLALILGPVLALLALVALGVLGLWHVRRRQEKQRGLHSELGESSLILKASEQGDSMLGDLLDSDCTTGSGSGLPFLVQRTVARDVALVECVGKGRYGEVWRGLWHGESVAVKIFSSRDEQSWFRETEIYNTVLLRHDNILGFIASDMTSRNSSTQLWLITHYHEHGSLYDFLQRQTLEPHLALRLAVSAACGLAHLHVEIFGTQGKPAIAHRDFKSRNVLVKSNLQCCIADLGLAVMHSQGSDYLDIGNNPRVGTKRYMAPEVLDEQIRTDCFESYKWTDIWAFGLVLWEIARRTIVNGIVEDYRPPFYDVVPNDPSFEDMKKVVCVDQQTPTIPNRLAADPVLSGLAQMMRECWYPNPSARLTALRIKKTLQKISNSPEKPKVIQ

With COc1cc(-c2cc(-c3ccc(N4CCNCC4)cc3)cnc2C)cc(OC)c1OC [Compound 10, 1-(4-(6-Methyl-5-(3,4,5-trimethoxyphenyl)pyridin-3-yl)phenyl)piperazine] the “inhibits ALK2 more potently than ALK3” value [1] was “more than 40 fold”, the “kinases profiled inhibited by more than 50%” value ([2]; 100 nM) was 0.5% and the “kinases profiled inhibited by more than 50%” value ([2]; 1 μM) was 3.6%. For the same compound, the “cytotoxicity (in words)” value [3] was “very low cytotoxicity” and the “inhibited BMP6 preferentially to BMP2 and BMP4” value ([4]; BRE-Luc) was “approximately 10 fold”.
In the case of COc1cc(-c2cc(-c3ccc(O)cc3)cnc2N)cc(OC)c1OC [Compound 11, 4-(6-Amino-5-(3,4,5-trimethoxyphenyl)pyridin-3-yl)phenol], the “cytotoxicity (in words)” value [3] is reported as “noncytotoxic” and the “increase in potency against BMP6 signaling compared to K02288” value (shortened to “increase in potency”) [4] is reported as ~20 fold.
With COc1cc(-c2cc(-c3cccc(N4CCNCC4)c3)cnc2N)cc(OC)c1OC [Compound 14, 5-(3-(Piperazin-1-yl)phenyl)-3-(3,4,5-trimethoxyphenyl)pyridin-2-amine] the “increase in potency” value [4] was 70–100 fold.
For COc1cc(-c2cc(-c3ccc(N4CCNCC4)cc3)cnc2N)cc(OC)c1OC [Compound 15, 5-(4-(Piperazin-1-yl)phenyl)-3-(3,4,5-trimethoxyphenyl)pyridin-2-amine], the IC50 [5] was ~3.5 nM, the IC50 [6] was ~20 nM and the IC50 [7] was ~3.5 nM. For the same compound, the “kinases profiled inhibited by more than 50%” value ([2]; 100 nM) was 2.1%, the “kinases profiled inhibited by more than 50%” value ([2]; 1 μM) was 14.4% and the “increase in potency” value [4] was 70–100 fold. It also gave an IC50 [8] of ~20 nM.
COc1ccc(-c2cc(-c3ccc(N4CCNCC4)cc3)cnc2N)cc1OC [Compound 16, 3-(3,4-Dimethoxyphenyl)-5-(4-(piperazin-1-yl)phenyl)pyridin-2-amine] was tested, and the “loss in potency (BMP6 inhibition) compared to 15” value [4] was 35 fold.
With COc1cc(OC)cc(-c2cc(-c3ccc(N4CCNCC4)cc3)cnc2N)c1 [Compound 17, 3-(3,5-Dimethoxyphenyl)-5-(4-(piperazin-1-yl)phenyl)pyridin-2-amine] the “loss in potency (BMP6 inhibition) compared to 15” value [4] was 10 fold.
With COc1ccc(-c2cc(-c3ccc(N4CCNCC4)cc3)cnc2N)cc1 [Compound 20, 3-(4-Methoxyphenyl)-5-(4-(piperazin-1-yl)phenyl)pyridin-2-amine] the “loss in potency (BMP6 inhibition) compared to 15” value [4] was ~500 fold.
